Columns and labels:
[1] = target: Tyrosine-protein kinase JAK1 (Homo sapiens, UniProt P23458); settings: at 10 µM
[2] = target: T1, Dual specificity mitogen-activated protein kinase kinase 3 (Homo sapiens) (UniProt P46734); experiment: Selectivity interaction (KinomeScan (DiscoverX)) EUB0001049a MAP2K3; settings: at 1 µM
T1 sequence (whole entry): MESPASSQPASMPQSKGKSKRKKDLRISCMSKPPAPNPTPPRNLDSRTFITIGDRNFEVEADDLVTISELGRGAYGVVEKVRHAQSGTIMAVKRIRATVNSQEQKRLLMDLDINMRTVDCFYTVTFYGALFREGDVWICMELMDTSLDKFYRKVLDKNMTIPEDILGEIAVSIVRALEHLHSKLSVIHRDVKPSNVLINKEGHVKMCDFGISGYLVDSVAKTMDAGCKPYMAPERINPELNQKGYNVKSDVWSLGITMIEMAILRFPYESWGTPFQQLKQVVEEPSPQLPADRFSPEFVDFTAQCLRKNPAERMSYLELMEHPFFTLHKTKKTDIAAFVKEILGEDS

[3] = target: Homeodomain-interacting protein kinase 1 (Homo sapiens, UniProt Q86Z02); experiment: Selectivity interaction (Ambit KINOMEscan and KiNATiv profiling in Jurkat cells) EUB0000090b HIPK1; format: cell-based; settings: at 1 µM
[4] = target: T2, Mitogen-activated protein kinase 13 (Homo sapiens) (UniProt O15264); experiment: Selectivity interaction (KinomeScan (DiscoverX)) EUB0000229b MAPK13; settings: at 10 µM
T2 sequence (whole entry): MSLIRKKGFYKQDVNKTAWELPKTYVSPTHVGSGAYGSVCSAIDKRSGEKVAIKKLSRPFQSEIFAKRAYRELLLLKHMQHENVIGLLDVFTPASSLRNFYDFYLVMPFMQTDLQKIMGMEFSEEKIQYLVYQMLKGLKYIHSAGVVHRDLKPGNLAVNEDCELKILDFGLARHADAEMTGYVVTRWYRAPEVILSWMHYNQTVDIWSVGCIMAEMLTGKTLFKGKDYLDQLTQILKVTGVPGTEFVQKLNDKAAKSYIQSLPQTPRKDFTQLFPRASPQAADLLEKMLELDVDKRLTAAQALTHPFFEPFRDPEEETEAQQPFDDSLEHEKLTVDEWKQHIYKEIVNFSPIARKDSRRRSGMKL

[5] = target: T3, Serine/threonine-protein kinase Nek2 (Homo sapiens) (UniProt P51955); experiment: Selectivity interaction (KinomeScan (DiscoverX)) EUB0000092b NEK2; settings: at 10 µM
T3 sequence (whole entry): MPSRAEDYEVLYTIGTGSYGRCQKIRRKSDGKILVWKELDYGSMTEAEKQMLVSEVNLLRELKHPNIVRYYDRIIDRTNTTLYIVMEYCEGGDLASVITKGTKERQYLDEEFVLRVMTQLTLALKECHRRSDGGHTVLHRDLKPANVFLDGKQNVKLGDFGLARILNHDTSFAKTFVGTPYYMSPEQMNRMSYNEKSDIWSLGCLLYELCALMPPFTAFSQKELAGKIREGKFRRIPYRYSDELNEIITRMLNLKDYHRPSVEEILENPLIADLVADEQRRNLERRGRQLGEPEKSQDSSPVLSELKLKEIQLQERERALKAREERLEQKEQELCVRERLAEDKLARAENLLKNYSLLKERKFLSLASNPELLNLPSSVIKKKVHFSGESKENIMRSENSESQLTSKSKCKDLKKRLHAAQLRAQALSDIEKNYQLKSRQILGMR

[6] = target: T4, Mitogen-activated protein kinase kinase kinase 2 (Homo sapiens) (UniProt Q9Y2U5); experiment: Selectivity interaction (KinomeScan (DiscoverX)) EUB0000092b MAP3K2; settings: at 10 µM
T4 sequence (whole entry): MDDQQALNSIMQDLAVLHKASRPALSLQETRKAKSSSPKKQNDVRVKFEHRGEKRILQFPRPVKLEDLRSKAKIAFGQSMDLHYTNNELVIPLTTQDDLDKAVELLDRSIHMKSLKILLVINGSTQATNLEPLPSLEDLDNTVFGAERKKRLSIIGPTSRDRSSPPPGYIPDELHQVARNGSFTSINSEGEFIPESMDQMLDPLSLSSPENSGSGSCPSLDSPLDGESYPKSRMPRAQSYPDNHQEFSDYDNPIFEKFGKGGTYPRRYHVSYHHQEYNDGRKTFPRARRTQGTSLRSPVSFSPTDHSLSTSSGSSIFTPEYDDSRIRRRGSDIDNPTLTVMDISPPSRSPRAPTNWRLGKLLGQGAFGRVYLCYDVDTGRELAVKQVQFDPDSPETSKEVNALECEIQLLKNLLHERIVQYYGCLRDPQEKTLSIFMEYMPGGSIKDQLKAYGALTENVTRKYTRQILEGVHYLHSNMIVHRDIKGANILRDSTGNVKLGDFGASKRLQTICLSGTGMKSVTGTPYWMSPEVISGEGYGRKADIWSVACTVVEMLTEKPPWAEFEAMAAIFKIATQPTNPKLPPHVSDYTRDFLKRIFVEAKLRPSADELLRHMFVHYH

[7] = target: T5, Serine/threonine-protein kinase BRSK2 (Homo sapiens) (UniProt Q8IWQ3); experiment: Selectivity interaction (KinomeScan (DiscoverX)) EUB0001619a BRSK2; settings: at 1 µM
T5 sequence (whole entry): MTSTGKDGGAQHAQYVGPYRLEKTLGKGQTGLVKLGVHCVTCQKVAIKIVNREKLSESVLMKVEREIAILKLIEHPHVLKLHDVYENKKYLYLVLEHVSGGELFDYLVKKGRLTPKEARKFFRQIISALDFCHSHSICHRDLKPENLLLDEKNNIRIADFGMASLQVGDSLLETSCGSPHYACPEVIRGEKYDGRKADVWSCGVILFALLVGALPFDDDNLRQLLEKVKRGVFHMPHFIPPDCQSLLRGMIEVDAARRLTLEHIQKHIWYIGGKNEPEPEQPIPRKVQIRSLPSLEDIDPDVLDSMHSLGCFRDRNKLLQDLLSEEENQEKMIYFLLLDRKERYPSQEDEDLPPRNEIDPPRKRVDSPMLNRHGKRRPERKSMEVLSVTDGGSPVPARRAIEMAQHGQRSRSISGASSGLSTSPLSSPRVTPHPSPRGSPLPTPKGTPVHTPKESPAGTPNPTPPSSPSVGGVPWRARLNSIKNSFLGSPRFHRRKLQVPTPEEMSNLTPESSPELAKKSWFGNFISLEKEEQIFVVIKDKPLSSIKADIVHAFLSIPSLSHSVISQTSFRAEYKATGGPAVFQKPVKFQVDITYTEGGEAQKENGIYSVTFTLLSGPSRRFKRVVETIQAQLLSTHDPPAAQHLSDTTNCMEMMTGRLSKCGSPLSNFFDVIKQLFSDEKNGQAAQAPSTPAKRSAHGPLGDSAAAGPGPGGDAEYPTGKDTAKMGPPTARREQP

[8] = target: Serine/threonine-protein kinase tousled-like 2 (Homo sapiens) (UniProt Q86UE8); experiment: Selectivity interaction (KinomeScan (DiscoverX)) EUB0000607a TLK2; settings: at 10 µM
[9] = target: Proto-oncogene tyrosine-protein kinase ROS (Homo sapiens) (UniProt P08922); experiment: Selectivity interaction (SelectScreen profiling (Invitrogen)) EUB0000607a ROS1; settings: at 2 µM

Chain of Homeodomain-interacting protein kinase 1 (Q86Z02 whole entry, looked up): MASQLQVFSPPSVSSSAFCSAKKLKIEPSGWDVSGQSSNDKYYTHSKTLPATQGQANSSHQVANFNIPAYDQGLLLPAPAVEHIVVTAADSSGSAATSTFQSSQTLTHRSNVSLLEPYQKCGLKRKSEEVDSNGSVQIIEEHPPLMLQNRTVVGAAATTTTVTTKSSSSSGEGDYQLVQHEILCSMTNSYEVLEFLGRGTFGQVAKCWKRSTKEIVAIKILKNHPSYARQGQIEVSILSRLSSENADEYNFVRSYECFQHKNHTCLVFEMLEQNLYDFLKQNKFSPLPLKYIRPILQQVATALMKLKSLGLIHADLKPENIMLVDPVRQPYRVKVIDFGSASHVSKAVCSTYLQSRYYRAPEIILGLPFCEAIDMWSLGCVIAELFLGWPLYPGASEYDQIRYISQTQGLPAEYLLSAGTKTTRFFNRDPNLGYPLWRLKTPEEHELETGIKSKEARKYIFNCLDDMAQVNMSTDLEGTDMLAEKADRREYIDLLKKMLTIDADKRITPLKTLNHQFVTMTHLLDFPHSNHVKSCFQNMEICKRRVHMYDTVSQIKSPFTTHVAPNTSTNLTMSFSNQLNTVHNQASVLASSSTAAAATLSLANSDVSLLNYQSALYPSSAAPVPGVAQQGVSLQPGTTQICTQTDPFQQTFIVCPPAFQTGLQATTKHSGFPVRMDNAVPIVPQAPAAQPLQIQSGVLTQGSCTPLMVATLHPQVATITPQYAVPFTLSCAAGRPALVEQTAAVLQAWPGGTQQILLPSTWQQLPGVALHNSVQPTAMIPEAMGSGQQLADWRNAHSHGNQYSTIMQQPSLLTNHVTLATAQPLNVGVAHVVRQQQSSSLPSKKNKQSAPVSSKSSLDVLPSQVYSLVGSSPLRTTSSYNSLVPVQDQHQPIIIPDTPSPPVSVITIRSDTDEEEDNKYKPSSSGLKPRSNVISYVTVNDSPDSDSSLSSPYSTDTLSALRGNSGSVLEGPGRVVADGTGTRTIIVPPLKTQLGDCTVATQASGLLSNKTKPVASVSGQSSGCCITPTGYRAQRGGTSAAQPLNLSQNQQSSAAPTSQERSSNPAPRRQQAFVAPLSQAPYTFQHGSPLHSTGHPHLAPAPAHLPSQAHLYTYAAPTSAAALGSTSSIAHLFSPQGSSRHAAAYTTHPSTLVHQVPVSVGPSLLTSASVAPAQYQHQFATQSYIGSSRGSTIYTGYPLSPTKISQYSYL
Chain of Serine/threonine-protein kinase tousled-like 2 (Homo sapiens) (Q86UE8 whole entry, looked up): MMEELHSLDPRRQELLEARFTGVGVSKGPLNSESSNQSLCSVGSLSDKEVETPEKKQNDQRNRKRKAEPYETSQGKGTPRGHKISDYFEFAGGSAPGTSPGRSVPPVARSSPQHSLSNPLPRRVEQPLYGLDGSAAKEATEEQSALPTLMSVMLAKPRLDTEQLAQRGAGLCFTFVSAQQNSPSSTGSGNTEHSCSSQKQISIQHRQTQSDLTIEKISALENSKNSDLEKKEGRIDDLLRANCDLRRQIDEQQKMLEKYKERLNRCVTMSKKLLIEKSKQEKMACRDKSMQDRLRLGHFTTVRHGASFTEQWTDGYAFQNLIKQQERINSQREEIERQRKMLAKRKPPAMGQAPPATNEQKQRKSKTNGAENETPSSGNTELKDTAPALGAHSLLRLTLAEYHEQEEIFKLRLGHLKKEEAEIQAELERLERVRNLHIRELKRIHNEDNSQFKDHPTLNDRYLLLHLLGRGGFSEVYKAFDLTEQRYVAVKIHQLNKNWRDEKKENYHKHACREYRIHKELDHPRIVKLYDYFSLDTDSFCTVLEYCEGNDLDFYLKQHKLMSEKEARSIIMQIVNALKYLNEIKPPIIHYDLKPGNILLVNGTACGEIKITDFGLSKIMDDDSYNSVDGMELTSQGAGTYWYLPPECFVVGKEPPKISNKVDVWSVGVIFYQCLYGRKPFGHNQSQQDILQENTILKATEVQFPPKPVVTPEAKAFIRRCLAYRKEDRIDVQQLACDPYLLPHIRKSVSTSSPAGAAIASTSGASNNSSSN
Chain of Tyrosine-protein kinase JAK1 (P23458 whole entry): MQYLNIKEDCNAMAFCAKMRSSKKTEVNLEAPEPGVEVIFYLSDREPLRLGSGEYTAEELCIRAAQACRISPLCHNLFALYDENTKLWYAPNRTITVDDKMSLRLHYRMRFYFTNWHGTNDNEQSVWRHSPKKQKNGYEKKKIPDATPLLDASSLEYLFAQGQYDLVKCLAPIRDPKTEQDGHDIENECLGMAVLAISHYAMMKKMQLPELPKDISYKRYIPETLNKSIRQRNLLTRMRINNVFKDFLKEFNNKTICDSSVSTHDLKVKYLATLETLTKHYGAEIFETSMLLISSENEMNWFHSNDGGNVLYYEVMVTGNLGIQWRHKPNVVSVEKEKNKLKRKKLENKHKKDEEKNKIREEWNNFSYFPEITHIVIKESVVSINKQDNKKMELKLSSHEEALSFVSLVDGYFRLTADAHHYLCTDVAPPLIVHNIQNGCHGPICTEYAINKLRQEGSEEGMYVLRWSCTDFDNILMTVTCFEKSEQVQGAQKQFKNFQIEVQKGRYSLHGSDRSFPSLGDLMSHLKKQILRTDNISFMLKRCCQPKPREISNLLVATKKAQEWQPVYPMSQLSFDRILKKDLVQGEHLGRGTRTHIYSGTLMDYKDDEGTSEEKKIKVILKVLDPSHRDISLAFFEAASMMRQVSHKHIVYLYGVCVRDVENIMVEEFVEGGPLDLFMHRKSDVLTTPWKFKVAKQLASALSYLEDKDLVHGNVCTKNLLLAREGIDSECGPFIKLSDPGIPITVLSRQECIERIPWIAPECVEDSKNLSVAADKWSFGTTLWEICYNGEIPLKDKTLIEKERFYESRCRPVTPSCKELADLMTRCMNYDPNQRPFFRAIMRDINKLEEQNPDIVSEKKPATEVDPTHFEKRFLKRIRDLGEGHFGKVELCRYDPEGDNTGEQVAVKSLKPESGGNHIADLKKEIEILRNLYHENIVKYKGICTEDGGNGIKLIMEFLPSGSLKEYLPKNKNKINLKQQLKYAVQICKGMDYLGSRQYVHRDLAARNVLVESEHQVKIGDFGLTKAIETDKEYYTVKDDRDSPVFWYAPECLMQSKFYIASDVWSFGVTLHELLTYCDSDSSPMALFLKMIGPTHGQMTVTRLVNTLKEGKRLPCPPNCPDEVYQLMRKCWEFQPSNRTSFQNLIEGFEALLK

Cc1cc([C@@H](C)Nc2ccccc2C(=O)O)c2nc(N3CCOCC3)cc(=O)n2c1 [AZD-6482]
% of control [1]: 100%

COc1cc(Nc2nc(C)cc(-c3cnn4nc(OC)ccc34)n2)cc(C(F)(F)F)c1
% of control [2]: 86%

CN(C)C/C=C/C(=O)Nc1ccc(C(=O)N2CCCC(Nc3ncc(Cl)c(-c4c[nH]c5ccccc45)n3)C2)cc1 (centres undefined)
% of control [3]: 80%

COc1cc(N(C)c2ccnc3ccc(C(F)(F)F)cc23)cc(OC)c1OC
% binding [4]: 78%

CCC(=O)N1CCN(c2ccc(-n3c(=O)ccc4cnc5ccc(-c6cnc7ccccc7c6)cc5c43)cc2C(F)(F)F)CC1
% of control [5]: 90%
% of control [6]: 62%

N#Cc1cccc(-c2c[nH]c3ncnc(N4CCOCC4)c23)c1
% of control [7]: 85%

CNC(=O)Nc1ccc(-c2nc(N3CC4CCC(C3)O4)c3cnn(C4CCC5(CC4)OCCO5)c3n2)cc1
% of control [8]: 100%
% of inhibition [9]: 2%

Source: ChEMBL document CHEMBL5465560, “Selectivity Literature for EUbOPEN Chemogenomic Library” (2024)
